Consider 1 molecule from patent US11235001B2, “RUNX inhibitor” (KYOTO UNIVERSITY, priority 2016, dated 2022).

One assay deals with p53, p21, PUMA, and BAX. Nature of the assay: Western blotting of apoptosis-related factors in lung adenocarcinoma cells. It counts as cell-based, human. Particulars: A549 cells and LU99A cells, 1 μM, 24 hours. As for the experimental part: Cells were washed twice with ice cold phosphate-buffered saline (PBS) and harvested in protein lysis buffer [50 mM Tris (pH 7.4), 100 mM NaCl, 0.1 mM EDTA, 1 mM phenylmethylsulfonyl fluoride, 1 mM β-glycerophosphate, 2.5 mM sodium pyrophosphate, 1 mM Na3VO4, lx protease inhibitor (Roche) and PhosSTOP (Roche)]. Whole cell extracts were separated by SDS-polyacrylamide gel electrophoresis (SDS-PAGE) and electrotransferred onto polyvinylidene difluoride membranes. […] Blots were detected using Chemi-Lumi One Super (nacalai tesque, Inc.) and ChemiDoc™ XRS+ Imager (Bio-Rad Laboratories, Inc.), as recommended by the manufacturers. Protein levels were quantified with Image Lab Software (Bio-Rad Laboratories, Inc.).
To A549 cells and LU99A cells, 1 μM Chb-M′ was administered. After 24 hours, the expression levels of apoptosis-related factors (p53, p21, PUMA, and BAX) were evaluated by the Western blotting method (see the above-described “Immunoblotting”). […]

Another assay concerns DU-145 cells. The settings on record: read-out: IC50 (μM) in DU-145 cells; DU-145 (androgen-independent), 48 hours.

One may read the IC50 as the concentration needed to halve the response being measured. As for `CN(C)CCCNC(=O)c1cc(NC(=O)c2cc(NC(=O)c3cc(NC(=O)c4cc(NC(=O)CCCNC(=O)c5nc(NC(=O)c6nc(NC(=O)c7cc(NC(=O)c8nc(NC(=O)CCNC(=O)CCCc9ccc(N(CCCl)CCCl)cc9)cn8C)cn7C)cn6C)cn5C)cn4C)cn3C)cn2C)cn1C` [Chb-M′], in the assay with p53, p21, PUMA, and BAX, the “p53 and p21 and apoptotic factors PUMA and BAX (protein)” value is given as “enhanced”. The IC50 in the assay on DU-145 cells turned out to be 1.82 µM.
